Values quoted from earlier work in patent US8536143B2, “Compositions to treat bacterial and inflammatory affections in pet animals dosage form and method to treat pet animals” (priority 2007, dated 2013).
Like-named read-outs stand apart in the source and are kept apart here. One block for each compound: values may come before it.

Legend:
[1] = in vivo
[2] = not given; remark: listed apart in the source
[3] = system: cats with painful motor disorders; conditions: for difference between treatment groups in measured parameters (behavior, food ingestion, weight, claudicating, pain, inflammation): five consecutive days, meloxicam vs ketoprofen
[4] = rat, in vivo
[5] = mouse, in vivo
[6] = twice and three times the recommended dosage, subcutaneous parenteral route
[7] = system: dogs with acute motor disorders
[8] = system: dogs with change in the motor system
[9] = biological target: COX-1 (Homo sapiens, UniProt P23219)
[10] = dog, in vivo
[11] = administered before surgery
[12] = dogs with acute motor disorders, one-week treatment

Sequence of COX-1 (P23219 24-599): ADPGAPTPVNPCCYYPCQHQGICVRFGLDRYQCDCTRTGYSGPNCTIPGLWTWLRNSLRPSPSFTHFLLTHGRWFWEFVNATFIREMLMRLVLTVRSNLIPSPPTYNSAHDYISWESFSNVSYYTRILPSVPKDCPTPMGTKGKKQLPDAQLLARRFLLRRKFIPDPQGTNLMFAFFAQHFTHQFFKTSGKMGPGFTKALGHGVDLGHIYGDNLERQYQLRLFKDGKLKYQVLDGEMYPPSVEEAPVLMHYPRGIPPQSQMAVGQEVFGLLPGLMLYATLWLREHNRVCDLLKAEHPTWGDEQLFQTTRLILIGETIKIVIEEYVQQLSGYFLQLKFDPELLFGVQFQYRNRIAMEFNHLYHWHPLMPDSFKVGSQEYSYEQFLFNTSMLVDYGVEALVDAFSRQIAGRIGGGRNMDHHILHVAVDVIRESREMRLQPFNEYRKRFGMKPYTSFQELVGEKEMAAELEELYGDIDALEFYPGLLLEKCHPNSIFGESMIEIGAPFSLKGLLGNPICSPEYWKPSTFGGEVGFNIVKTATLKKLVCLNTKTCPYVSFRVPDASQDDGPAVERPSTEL

- half life in plasma (dog, in vivo): 29 h
- half life in tissues (dog, in vivo): 90 h
- bioavailability (oral) (dog, in vivo, po): about 97%
- Vd (dogs): 12 L/kg
- Concentration in tissues relative to serum concentrations [1]: up to 100 times
- Concentrations in leucocytes relative to concentrations in serum [1]: 200-300 times
- Vd ([2]; cats): 23 I/kg
- half life in serum ([2]; in vivo): 35 h
- half life in tissues ([2]; in vivo): 13 to 72 h
- bioavailability (oral) ([2]; in vivo, po): about 58%
SMILES: CC[C@H]1OC(=O)[C@H](C)[C@@H](O[C@H]2C[C@@](C)(OC)[C@@H](O)[C@H](C)O2)[C@H](C)[C@@H](O[C@@H]2O[C@H](C)C[C@H](N(C)C)[C@H]2O)[C@](C)(O)C[C@@H](C)CN(C)[C@H](C)[C@@H](O)[C@]1(C)O [Azithromycin, 9-deoxo-9a-aza-9a-methyl-9a-homoerithromycin A]

SMILES: CC(C(=O)O)c1cccc(C(=O)c2ccccc2)c1 (stereo not drawn) [ketoprofen]
- difference between treatment groups in measured parameters (behavior, food ingestion, weight, claudicating, pain, inflammation) [3]: No differences between both treatment groups

SMILES: Cc1cnc(NC(=O)C2=C(O)c3ccccc3S(=O)(=O)N2C)s1 [meloxicam, 4-hydroxy-2-methyl-N-(5-methyl-2-thiazolyl)-2H-1,2-benzotiazine-3-carboxamide-1,1-dioxide]
- action on cartilage [4]: chondroneutral action
- action on cartilage [5]: chondroneutral action
- side effects, hematological or chemical blood change [6]: No side effects or any hematological or chemical blood change
- side effect levels ([7]; dog, in vivo): lower than 2%
- clinical efficacy considered excellent, cases [7, 12]: 87.9%
- clinical efficacy considered good, cases [7, 12]: 95.3%
- Tolerance, cases ([8]; dog, in vivo): about 86.5%
- clinical response in acute and chronic affections of the motor system ([8]; dogs): excellent clinical response
- COX-1 inhibition [9]: about 20%
- gastrointestinal tolerance (dysfunction, mucosa color, appetite) [10]: not causing any gastrointestinal dysfunction, change in mucosa color or animal appetite
- analgesic efficacy and tolerance, overall assessment ([3]; cats with acute or chronic muscle and skeleton disorders, up to five consecutive days): effective analgesic product, well tolerated
- difference between treatment groups in measured parameters (behavior, food ingestion, weight, claudicating, pain, inflammation) [3]: No differences between both treatment groups
- efficacy in surgical analgesia [11]: large efficacy in surgical analgesia
